Laboratory results from US20130108562A1, “Cosmetic Composition Containing Oligopeptides” (Cognis IP Management GmbH, priority 2010, published 2013).
Residues, ends and D or L forms follow the SMILES beside them.

Assays:
[1] = test system: injured rabbit cornea; settings: Hara et al., Exp Eye Res, 2001; cited from earlier work
[2] = test system: epithelial cells from rabbit cornea; settings: Hara et al., Exp Eye Res, 2001; cited from earlier work
[3] = test system: collagen type I; assay: Collagen type I expression by immunocytochemistry in human dermal fibroblasts; format: cell-based
Method: The peptide Acetyl-Val-Leu-Leu-Lys was incubated on human dermal fibroblasts cultured in vitro and the expression of the collagen type I was measured using an immunocytochemistry (ICC) method.
The human dermal fibroblasts were cultured within growth medium enriched with Foetal Calf Serum (FCS) at 10% and incubated for 2 days at 37° C. Then the growth medium was exchanged for a standard medium containing sodium ascorbyl at 5 μg/ml with FCS at 1% and with or without the Acetyl-Val-Leu-Leu-Lys peptide at 5.1 mg/ml. A positive control condition with sodium ascorbyl at 20 μg/ml was performed. Cells were incubated for 72 hours at 37° C. with the peptide. Cultured human dermal fibroblasts were fixed by acetone for 10 minutes at −20° C. and incubated for 1 hour at room temperature with a primary antibody against collagen type I [Abcam] diluted at 1/250. Fluorescein isothiocyanate (FITC) labelled secondary antibody [CliniSciences, France] was used for revelation. The obtained immuno-staining was observed using a confocal laser scanning microscope [TCS SPE, Leica, France] and quantified by an image analyzer [Quantimet Q5001W, Leica, France]. The staining occupation was evaluated. The results were presented as a mean+/−SEM (Standard Error of Mean) from 6 measures.

[4] = test system: collagen type XIV gene (COL14A1); assay: COL14A1 mRNA level by qRT-PCR in human dermal fibroblasts; format: cell-based; settings: summary of Table 2
Method: The peptide Acetyl-Val-Leu-Leu-Lys was incubated on human dermal fibroblasts cultured in vitro and the expression of the collagen type XIV gene (COL14A1) was measured using a quantitative reverse-transcription and polymerase chain reaction (qRT-PCR) method.
(§1) The human dermal fibroblasts were cultured within growth medium enriched with FCS at 10% and incubated for 1 day at 37° C. Then the growth medium was exchanged for a standard medium without FCS but with or without the Acetyl-Val-Leu-Leu-Lys peptide at 1.0 μg/ml. Cells were then incubated for 24 hours, 48 hours or 72 hours at 37° C. before extraction of total RNA. The level of COL14A1 mRNAs in the different conditions was evaluated comparatively to the level of EEF1A1 mRNA as housekeeping gene (qRT-PCR method) for each condition.
The results were calculated through the level of COL14A1 mRNA measured in the control condition (without peptide treatment) for the different incubation times as 100% and presented as a mean+/−SEM from 3 or 5 assays in duplicate.

[5] = test system: glutaredoxin-2 gene (GLRX2); assay: GLRX2 mRNA level by qRT-PCR in human dermal fibroblasts; format: cell-based; settings: summary of Table 4
Method: The peptide Acetyl-Val-Leu-Leu-Lys was incubated on human dermal fibroblasts cultured in vitro and the expression of the glutaredoxin-2 gene (GLRX2), involved in cellular anti-oxidative defenses) was measured using a qRT-PCR method.
as §1, with “FCS” for “FCS but”, “were” for “were then”, “6” for “24 hours, 48 hours or 72”, “GLRX2” for “COL14A1”, “mRNAs” for “mRNAs in the different conditions”, “HPRT1 (hypoxanthine phosphoribosyltransferase I)” for “EEF1A1”
The results were calculated through the level of GLRX2 mRNA measured in the control condition (without peptide treatment) as 100% and presented as a mean+/−SEM from 3 assays in duplicated.

[6] = test system: tropoelastin gene (ELN); assay: ELN mRNA level by qRT-PCR in human dermal fibroblasts; format: cell-based; settings: summary of Table 3
Method: The peptide Acetyl-Val-Leu-Leu-Lys was incubated on human dermal fibroblasts cultured in vitro and the expression of the tropoelastin gene (ELN) was measured using a qRT-PCR method.
as §1, with “were” for “were then”, “ELN” for “COL14A1”, “EEF1A 1” for “EEF1A1”, “condition. The results were calculated through the level of ELN mRNA measured in the control condition (without peptide treatment) as 100% and presented as a mean+/−SEM from 3 assays in duplicate.” for “condition.”

Val-Leu-Leu-His (VLLH; printed: Val-Leu-Leu-His)
wound healing activity on injured rabbit cornea (in words) [1]: significant wound healing activity on injured rabbit cornea | proliferation of epithelial cells from rabbit cornea (in words) [2]: stimulate proliferation of epithelial cells from rabbit cornea

sodium ascorbyl [reference compound]
% of staining occupation (collagen type I immuno-staining) ([3]; positive control at 20 μg/ml, 72 hours, human dermal fibroblasts, mean +/− SEM from 6 measures, control 10.68 +/− 1): 18.01 +/− 1.07 (**) %

CC(=O)N[C@H](C(=O)N[C@@H](CC(C)C)C(=O)N[C@@H](CC(C)C)C(=O)N[C@@H](CCCCN)C(=O)O)C(C)C [Acetyl-Val-Leu-Leu-Lys, N-Acetyl-Val-Leu-Leu-Lys-OH] (Ac-VLLK-OH)
effect on level of COL14A1 gene expression (in words) [4]: specifically and significantly increased the level of COL14A1 gene expression | effect on level of GLRX2 gene expression (in words) [5]: specifically increased the level of GLRX2 gene expression | effect on level of collagen type I (in words) ([3]; summary of Table 1): significantly increased the level of collagen type I | effect on level of ELN gene expression (in words) [6]: specifically and significantly increased the level of ELN gene expression
